We go through one molecule from article PMC4979471 (Cell Death Discovery, 2015).

What all share (assay): Kinase selectivity, P33-radiolabeled assay
Holding throughout (assay type): biochemical
Common to all, as to conditions: 10 μM ATP

The target of one assay is T1, BRAF (Homo sapiens, UniProt P15056).
T1 construct: purchased Reaction Biology Corp
The procedure, abridged:
(§1)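 Reactions contained 10 μM ATP and 10 μM test compound, each run in duplicate. Kinase activity is expressed as a percentage of DMSO-treated controls.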

Another assay deals with T2, LKB1 (Homo sapiens, UniProt Q15831).
T2 construct: purchased Reaction Biology Corp
T2 sequence (Q15831 1-433): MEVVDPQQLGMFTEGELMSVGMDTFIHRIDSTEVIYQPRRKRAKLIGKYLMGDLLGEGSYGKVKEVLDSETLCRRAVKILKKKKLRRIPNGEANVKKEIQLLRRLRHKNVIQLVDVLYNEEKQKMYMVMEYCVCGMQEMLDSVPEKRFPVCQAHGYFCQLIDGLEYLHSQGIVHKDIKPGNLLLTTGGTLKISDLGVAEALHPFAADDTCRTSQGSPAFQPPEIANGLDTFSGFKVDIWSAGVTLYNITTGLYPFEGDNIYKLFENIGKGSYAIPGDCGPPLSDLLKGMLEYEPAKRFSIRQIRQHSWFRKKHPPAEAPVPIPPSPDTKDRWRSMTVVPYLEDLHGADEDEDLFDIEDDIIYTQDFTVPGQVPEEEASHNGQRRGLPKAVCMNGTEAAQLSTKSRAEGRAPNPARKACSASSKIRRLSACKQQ
T2 sequence (Q7RTN6 1-431 partner): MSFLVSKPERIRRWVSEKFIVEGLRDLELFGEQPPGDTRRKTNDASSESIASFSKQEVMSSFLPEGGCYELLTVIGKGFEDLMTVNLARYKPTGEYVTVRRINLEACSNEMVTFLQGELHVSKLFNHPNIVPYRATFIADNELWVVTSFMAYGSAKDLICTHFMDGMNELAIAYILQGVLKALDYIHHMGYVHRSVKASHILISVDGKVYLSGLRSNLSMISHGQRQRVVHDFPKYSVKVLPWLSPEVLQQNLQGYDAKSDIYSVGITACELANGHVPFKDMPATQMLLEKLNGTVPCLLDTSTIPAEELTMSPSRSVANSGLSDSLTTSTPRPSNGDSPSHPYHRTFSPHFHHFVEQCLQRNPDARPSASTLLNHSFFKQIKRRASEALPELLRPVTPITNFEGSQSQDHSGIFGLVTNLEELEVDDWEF
T2 sequence (Q9Y376 1-341 partner): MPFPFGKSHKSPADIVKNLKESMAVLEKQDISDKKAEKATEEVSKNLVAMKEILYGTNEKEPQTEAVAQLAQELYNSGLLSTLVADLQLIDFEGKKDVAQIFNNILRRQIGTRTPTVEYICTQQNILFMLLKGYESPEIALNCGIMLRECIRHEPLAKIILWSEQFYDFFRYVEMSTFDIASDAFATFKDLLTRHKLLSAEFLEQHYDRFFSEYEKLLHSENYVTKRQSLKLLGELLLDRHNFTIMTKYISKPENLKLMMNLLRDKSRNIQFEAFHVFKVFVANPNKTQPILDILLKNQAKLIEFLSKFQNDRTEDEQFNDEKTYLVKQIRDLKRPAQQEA
The procedure, abridged:
as §1

The target in the next assay is T3, MINK/MINK1 (Homo sapiens, UniProt Q8N4C8).
T3 construct: purchased Reaction Biology Corp
T3 sequence (Q8N4C8 whole entry): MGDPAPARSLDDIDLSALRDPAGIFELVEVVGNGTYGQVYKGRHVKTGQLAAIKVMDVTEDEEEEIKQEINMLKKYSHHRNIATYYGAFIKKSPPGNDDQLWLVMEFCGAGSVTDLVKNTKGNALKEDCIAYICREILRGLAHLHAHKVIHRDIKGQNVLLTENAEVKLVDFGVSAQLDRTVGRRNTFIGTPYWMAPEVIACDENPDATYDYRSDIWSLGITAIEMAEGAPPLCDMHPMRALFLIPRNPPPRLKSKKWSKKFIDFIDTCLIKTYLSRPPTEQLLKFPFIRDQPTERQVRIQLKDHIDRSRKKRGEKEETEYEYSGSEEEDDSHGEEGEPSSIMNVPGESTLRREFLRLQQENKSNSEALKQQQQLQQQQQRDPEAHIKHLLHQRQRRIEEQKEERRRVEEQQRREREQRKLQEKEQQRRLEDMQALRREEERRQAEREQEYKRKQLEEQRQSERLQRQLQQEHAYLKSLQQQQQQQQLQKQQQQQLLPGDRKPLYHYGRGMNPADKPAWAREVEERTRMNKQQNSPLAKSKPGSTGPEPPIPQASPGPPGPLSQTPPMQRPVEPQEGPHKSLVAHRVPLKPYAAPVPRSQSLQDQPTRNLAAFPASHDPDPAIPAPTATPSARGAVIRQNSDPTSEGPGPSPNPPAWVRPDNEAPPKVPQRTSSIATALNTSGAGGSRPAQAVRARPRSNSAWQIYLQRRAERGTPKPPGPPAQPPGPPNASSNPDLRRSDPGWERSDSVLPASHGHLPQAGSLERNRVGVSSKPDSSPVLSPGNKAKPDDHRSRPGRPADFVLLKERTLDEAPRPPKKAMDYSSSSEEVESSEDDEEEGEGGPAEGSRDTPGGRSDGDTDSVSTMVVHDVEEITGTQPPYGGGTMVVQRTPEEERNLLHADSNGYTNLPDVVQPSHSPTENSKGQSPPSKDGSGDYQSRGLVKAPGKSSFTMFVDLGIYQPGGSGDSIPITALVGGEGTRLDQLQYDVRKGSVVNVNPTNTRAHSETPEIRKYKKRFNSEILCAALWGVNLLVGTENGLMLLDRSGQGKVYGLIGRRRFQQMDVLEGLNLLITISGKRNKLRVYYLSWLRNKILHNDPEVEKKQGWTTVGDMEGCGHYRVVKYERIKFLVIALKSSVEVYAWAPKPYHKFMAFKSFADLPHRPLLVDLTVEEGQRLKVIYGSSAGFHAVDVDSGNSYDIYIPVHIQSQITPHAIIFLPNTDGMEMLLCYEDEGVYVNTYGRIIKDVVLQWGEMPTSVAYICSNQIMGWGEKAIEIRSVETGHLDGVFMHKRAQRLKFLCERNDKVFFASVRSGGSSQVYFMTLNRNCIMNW
The method, boiled down:
as §1

The next assay addresses T4, MRCKa/CDC42BPA (Homo sapiens, UniProt Q5VT25).
T4 construct: purchased Reaction Biology Corp
The procedure, abridged:
as §1

The target in another assay is T5, PKA (Homo sapiens, UniProt P17612).
T5 construct: purchased Reaction Biology Corp
The procedure, abridged: as §1

In another assay the target is T6, TAK1 (Homo sapiens, UniProt O43318).
T6 construct: purchased Reaction Biology Corp
T6 sequence (O43318 1-303 limits assumed): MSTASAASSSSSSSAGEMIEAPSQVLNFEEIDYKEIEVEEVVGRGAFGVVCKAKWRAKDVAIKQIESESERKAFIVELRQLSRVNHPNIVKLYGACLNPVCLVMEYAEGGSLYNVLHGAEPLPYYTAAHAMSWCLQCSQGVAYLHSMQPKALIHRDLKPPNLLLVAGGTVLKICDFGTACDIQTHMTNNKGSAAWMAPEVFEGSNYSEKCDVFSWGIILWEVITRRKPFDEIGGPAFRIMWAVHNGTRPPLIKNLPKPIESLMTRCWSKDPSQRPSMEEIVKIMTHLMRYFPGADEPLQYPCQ
T6 sequence (Q15750 437-504 partner limits assumed): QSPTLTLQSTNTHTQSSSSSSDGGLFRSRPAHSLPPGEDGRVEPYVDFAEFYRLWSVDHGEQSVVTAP
The method, boiled down:
as §1

The next assay deals with T7, TBK1 (Homo sapiens, UniProt Q9UHD2).
T7 construct: purchased Reaction Biology Corp
T7 sequence (Q9UHD2 1-729): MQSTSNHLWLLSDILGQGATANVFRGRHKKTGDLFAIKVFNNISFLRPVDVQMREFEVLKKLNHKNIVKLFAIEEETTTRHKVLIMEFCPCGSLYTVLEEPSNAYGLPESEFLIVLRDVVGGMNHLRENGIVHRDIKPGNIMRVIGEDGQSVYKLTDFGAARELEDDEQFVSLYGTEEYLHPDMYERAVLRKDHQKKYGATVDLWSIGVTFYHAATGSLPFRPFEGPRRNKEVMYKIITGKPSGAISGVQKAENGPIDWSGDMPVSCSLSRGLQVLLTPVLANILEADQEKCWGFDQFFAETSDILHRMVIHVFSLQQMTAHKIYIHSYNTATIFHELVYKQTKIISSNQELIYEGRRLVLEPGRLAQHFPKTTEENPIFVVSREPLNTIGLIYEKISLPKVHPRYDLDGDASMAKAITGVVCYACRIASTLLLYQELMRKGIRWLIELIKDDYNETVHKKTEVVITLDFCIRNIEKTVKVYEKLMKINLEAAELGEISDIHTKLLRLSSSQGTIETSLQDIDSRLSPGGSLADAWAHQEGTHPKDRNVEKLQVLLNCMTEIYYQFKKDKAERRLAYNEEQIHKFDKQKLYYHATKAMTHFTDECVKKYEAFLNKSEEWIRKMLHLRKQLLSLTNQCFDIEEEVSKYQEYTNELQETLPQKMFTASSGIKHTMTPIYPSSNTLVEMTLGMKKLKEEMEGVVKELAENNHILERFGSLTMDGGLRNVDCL
The procedure, abridged: as §1

The next assay concerns the target T8, p70S6Kb/RPS6KB2 (Homo sapiens, UniProt Q9UBS0).
T8 construct: purchased Reaction Biology Corp
The procedure, abridged: as §1

[1] abbreviates: read-out: % Enzyme Activity (relative to DMSO controls) AVG.
Where [2] appears, read: read-out: % Enzyme Activity (relative to DMSO controls) Data 1.
Where [3] appears, read: read-out: % Enzyme Activity (relative to DMSO controls) Data 2.

Each structure is given as a SMILES string. Like-named read-outs stand apart in the source and are kept apart here.

T1 sequence (P15056 whole entry): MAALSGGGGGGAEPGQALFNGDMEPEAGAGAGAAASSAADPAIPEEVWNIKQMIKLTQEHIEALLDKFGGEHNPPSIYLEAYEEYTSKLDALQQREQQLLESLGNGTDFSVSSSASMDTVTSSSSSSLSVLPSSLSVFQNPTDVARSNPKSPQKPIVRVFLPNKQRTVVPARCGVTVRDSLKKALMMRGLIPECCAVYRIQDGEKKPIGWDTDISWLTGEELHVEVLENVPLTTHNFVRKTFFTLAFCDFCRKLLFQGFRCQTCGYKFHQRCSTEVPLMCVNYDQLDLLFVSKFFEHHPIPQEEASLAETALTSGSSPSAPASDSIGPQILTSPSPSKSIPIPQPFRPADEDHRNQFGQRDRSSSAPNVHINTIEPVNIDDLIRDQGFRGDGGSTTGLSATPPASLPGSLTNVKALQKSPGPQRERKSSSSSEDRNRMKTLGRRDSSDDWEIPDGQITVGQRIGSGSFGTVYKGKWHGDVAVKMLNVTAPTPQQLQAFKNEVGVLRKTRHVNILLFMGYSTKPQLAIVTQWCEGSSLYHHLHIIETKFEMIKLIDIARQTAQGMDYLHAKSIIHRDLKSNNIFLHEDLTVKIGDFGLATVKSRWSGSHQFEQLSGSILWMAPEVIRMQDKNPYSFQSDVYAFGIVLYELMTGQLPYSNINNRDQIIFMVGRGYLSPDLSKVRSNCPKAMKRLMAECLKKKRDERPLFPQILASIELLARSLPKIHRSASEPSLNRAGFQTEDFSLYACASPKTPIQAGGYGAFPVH
T4 sequence (Q5VT25 whole entry): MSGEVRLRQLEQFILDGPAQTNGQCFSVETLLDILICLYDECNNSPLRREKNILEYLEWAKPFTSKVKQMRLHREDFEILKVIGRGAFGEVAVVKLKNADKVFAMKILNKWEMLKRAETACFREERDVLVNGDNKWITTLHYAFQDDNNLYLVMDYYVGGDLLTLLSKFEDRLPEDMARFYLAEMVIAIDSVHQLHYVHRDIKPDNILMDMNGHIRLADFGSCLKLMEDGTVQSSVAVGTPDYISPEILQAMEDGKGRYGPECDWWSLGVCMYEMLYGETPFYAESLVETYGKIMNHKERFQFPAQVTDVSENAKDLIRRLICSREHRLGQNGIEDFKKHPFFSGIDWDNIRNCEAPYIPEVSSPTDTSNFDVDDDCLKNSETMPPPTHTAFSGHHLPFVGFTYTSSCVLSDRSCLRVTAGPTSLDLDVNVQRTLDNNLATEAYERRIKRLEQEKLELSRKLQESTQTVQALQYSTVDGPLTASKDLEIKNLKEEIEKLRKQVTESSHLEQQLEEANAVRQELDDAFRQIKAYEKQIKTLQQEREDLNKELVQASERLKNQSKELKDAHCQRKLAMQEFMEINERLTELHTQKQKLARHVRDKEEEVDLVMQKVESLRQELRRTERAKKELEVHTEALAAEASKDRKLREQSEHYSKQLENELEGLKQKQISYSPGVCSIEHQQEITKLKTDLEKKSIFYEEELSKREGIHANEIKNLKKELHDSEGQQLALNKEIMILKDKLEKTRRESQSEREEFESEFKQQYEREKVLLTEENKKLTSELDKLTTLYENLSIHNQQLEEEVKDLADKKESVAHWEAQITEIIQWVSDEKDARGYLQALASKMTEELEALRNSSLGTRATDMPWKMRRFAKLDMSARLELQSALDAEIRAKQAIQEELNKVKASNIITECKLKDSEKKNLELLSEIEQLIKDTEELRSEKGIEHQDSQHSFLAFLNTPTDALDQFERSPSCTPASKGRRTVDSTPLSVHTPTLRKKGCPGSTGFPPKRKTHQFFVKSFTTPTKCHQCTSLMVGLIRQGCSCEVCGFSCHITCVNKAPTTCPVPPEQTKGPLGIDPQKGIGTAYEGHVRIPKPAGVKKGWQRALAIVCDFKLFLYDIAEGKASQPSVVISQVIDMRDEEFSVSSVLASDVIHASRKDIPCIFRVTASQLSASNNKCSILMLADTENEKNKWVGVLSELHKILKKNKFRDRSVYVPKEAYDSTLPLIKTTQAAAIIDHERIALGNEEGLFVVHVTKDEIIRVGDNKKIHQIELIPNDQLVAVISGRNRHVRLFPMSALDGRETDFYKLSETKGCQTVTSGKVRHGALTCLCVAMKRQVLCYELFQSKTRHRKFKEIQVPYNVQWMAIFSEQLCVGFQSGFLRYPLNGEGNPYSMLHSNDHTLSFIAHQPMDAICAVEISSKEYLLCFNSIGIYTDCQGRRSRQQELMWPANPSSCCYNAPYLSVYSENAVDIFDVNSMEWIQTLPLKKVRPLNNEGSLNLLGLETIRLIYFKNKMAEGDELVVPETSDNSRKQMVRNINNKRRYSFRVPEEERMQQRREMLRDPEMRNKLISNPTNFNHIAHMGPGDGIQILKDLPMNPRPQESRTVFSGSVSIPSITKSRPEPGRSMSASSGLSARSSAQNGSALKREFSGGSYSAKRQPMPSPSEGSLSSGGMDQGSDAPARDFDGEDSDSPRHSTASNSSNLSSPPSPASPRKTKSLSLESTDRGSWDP
T8 sequence (Q9UBS0 whole entry): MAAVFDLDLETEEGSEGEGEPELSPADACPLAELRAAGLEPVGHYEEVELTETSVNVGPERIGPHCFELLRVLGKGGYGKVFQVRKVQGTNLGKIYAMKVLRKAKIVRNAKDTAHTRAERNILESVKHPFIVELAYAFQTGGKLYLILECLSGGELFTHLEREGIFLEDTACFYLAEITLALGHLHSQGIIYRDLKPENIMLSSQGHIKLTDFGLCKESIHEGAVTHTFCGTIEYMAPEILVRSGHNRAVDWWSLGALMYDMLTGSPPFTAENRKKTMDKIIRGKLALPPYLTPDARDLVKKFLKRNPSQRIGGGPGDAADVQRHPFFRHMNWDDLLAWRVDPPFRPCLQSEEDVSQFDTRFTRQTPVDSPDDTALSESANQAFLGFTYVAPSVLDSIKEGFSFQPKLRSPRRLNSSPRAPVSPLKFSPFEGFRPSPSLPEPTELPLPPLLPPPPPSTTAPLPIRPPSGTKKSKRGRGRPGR

Regarding `CC(C)(C)C(=O)N1N=CC[C@H]1c1ccccc1` [GSK′963], the remaining activity at 10 µM amounted to 89.4% on BRAF (setting [1]); 89.4% on BRAF (setting [2]); 89.4% on BRAF (setting [3]); 105% on LKB1 (setting [1]); 105% on LKB1 (setting [2]); 106% at LKB1 (setting [3]). Moreover, the remaining activity at 10 µM at MINK/MINK1 (setting [1]) stood at 90.2%; on MINK/MINK1 (setting [2]) it was 89.8%; on MINK/MINK1 (setting [3]), 90.6%; at MRCKa/CDC42BPA (setting [1]), 111%; at MRCKa/CDC42BPA (setting [2]), 110%; at MRCKa/CDC42BPA (setting [3]), 112%. Further, the remaining activity at 10 µM at PKA (setting [1]) was found to be 110%; at PKA (setting [2]), 112%; on PKA (setting [3]), 107%; on TAK1 (setting [1]), 98.8%; on TAK1 (setting [2]), 99.7%; at TAK1 (setting [3]), 97.9%. For the same molecule, the remaining activity at 10 µM at TBK1 (setting [1]) stood at 86%; at TBK1 (setting [2]) it was 86.8%; at TBK1 (setting [3]) it was 85.3%; on p70S6Kb/RPS6KB2 (setting [1]), 100%; at p70S6Kb/RPS6KB2 (setting [2]), 102%; at p70S6Kb/RPS6KB2 (setting [3]), 98%.
